Among the data in patent US9499550B2 (BRISTOL-MYERS SQUIBB COMPANY, priority 2012, dated 2016) are EC50 values, retold here.

The subject of assay [1] is HCV genotype 1b (Con1) replicon in HUH-7 cells. In words: HCV replicon luciferase reporter assay, genotype 1b. The assay is classed as cell-based. As to conditions: Hepatitis C virus, Huh-7, 72 h, HCV genotype 1b replicon luciferase, 3 days incubation, read-out: LE_1b (EC50, range). An outline of the steps: (§1)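 Replicon inhibition for both genotypes was measured as Renilla luciferase signal (EnduRen, 7.5 μM final, 2 h) after 3-day, 37° C exposure of replicon-bearing HUH-7 cells in 4% FCS DMEM, 0.5% DMSO. The 1b construct carries S1179I; the 1a H77 construct carries P1496L and S2204I. Twenty-point, 3-fold dilutions were fitted four-parametrically for EC50, and CC50 was taken from multiplexed Cell Titer-Blue.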
For orientation: In antiviral work, replicon cells carry a viral genome segment that copies itself.

Assay [2] relates to HCV genotype 1a (H77 strain) replicon in HUH-7 cells. The assay can be described thus: HCV replicon luciferase reporter assay, genotype 1a. The assay is classed as cell-based. As to conditions: Hepatitis C virus, Huh-7, 72 h, HCV genotype 1a replicon luciferase, 3 days incubation, read-out: LE_1a (EC50, range). Put shortly:
as §1

Some results are limits rather than exact numbers.

For orientation: EC50 means the midpoint of the concentration-response curve. For the compound `CC(C)Oc1ccc2c(O[C@@H]3C[C@H]4C(=O)N[C@]5(C(=O)NS(=O)(=O)C6(C)CC6)C[C@H]5/C=C\CC[C@@H](C)C[C@@H](C)[C@H](NC(=O)OC(C)(C)C(F)(F)F)C(=O)N4C3)nccc2c1` [Compound 5159, 1,1,1-trifluoro-2-methylpropan-2-yl((2R,6S,7R,9R,13aS,14aR,16aS,Z)-2-((6-isopropoxyisoquinolin-1-yl)oxy)-7,9-dimethyl-14a-(((1-methylcyclopropyl)sulfonyl)carbamoyl)-5,16-dioxo-1,2,3,5,6,7,8,9,10,11,13a,14,14a,15,16,16a-hexadecahydrocyclopropa[e]pyrrolo[1,2-a][1,4]diazacyclopentadecin-6-yl)carbamate], the EC50 in assay [1] and in assay [2] was less than 5.46 nM in each case.

On to `CC(C)Oc1ccc2c(O[C@@H]3C[C@H]4C(=O)N[C@]5(C(=O)NS(=O)(=O)C6(C)CC6)C[C@H]5/C=C\CC[C@H](C)C[C@@H](C)[C@H](NC(=O)O[C@H](C)C(F)(F)F)C(=O)N4C3)nccc2c1` [Compound 5160, (R)-1,1,1-trifluoropropan-2-yl ((2R,6S,7R,9S,13aS,14aR,16aS,Z)-2-((6-isopropoxyisoquinolin-1-yl)oxy)-7,9-dimethyl-14a-(((1-methylcyclopropyl)sulfonyl)carbamoyl)-5,16-dioxo-1,2,3,5,6,7,8,9,10,11,13a,14,14a,15,16,16a-hexadecahydrocyclopropa[e]pyrrolo[1,2-a][1,4]diazacyclopentadecin-6-yl)carbamate], for which the figures for the EC50 in assay [1] and in assay [2] were less than 5.46 nM and 4.82 to 103 nM, respectively.

In the case of `CC(C)Oc1ccc2c(O[C@@H]3C[C@H]4C(=O)N[C@]5(C(=O)NS(=O)(=O)C6(C)CC6)C[C@H]5/C=C\CC[C@@H](C)C[C@@H](C)[C@H](NC(=O)O[C@H](C)C(F)(F)F)C(=O)N4C3)nccc2c1` [Compound 5161, (R)-1,1,1-trifluoropropan-2-yl ((2R,6S,7R,9R,13aS,14aR,16aS,Z)-2-((6-isopropoxyisoquinolin-1-yl)oxy)-7,9-dimethyl-14a-(((1-methylcyclopropyl)sulfonyl)carbamoyl)-5,16-dioxo-1,2,3,5,6,7,8,9,10,11,13a,14,14a,15,16,16a-hexadecahydrocyclopropa[e]pyrrolo[1,2-a][1,4]diazacyclopentadecin-6-yl)carbamate], the half-maximal effective concentration (EC50) in assay [1] and in assay [2] was less than 5.46 nM each time.

Consider `CC(C)Oc1ccc2c(O[C@@H]3C[C@H]4C(=O)N[C@]5(C(=O)NS(=O)(=O)C6(C)CC6)C[C@H]5/C=C\CC[C@H](C)C[C@@H](C)[C@H](NC(=O)O[C@@H]5C[C@@H]6C[C@@H]6C5)C(=O)N4C3)nccc2c1` [Compound 5162, (1R,3r,5S)-bicyclo[3.1.0]hexan-3-yl((2R,6S,7R,9S,13aS,14aR,16aS,Z)-2-((6-isopropoxyisoquinolin-1-yl)oxy)-7,9-dimethyl-14a-(((1-methylcyclopropyl)sulfonyl)carbamoyl)-5,16-dioxo-1,2,3,5,6,7,8,9,10,11,13a,14,14a,15,16,16a-hexadecahydrocyclopropa[e]pyrrolo[1,2-a][1,4]diazacyclopentadecin-6-yl)carbamate], for which the EC50 was less than 5.46 nM in assay [1] and 4.82 to 103 nM in assay [2].

Consider `CC(C)Oc1ccc2c(O[C@@H]3C[C@H]4C(=O)N[C@]5(C(=O)NS(=O)(=O)C6(C)CC6)C[C@H]5/C=C\CC[C@@H](C)C[C@@H](C)[C@H](NC(=O)O[C@@H]5C[C@@H]6C[C@@H]6C5)C(=O)N4C3)nccc2c1` [Compound 5163, (1R,3r,5S)-bicyclo[3.1.0]hexan-3-yl((2R,6S,7R,9R,13aS,14aR,16aS,Z)-2-((6-isopropoxyisoquinolin-1-yl)oxy)-7,9-dimethyl-14a-(((1-methylcyclopropyl)sulfonyl)carbamoyl)-5,16-dioxo-1,2,3,5,6,7,8,9,10,11,13a,14,14a,15,16,16a-hexadecahydrocyclopropa[e]pyrrolo[1,2-a][1,4]diazacyclopentadecin-6-yl)carbamate], for which the EC50 in assay [1] and in assay [2] was less than 5.46 nM in each case.

Consider `[2H]C([2H])([2H])C(C)(OC(=O)N[C@@H]1C(=O)N2C[C@H](Oc3nccc4cc(OC(C)C)ccc34)C[C@H]2C(=O)N[C@]2(C(=O)NS(=O)(=O)C3(C)CC3)C[C@H]2/C=C\CC[C@H](C)C[C@H]1C)C([2H])([2H])[2H]` [Compound 5164], for which the EC50 in assay [1] and in assay [2] was 4.82 to 103 nM throughout.

For `[2H]C([2H])([2H])C(C)(OC(=O)N[C@@H]1C(=O)N2C[C@H](Oc3nccc4cc(OC(C)C)ccc34)C[C@H]2C(=O)N[C@]2(C(=O)NS(=O)(=O)C3(C)CC3)C[C@H]2/C=C\CC[C@@H](C)C[C@H]1C)C([2H])([2H])[2H]` [Compound 5165], the EC50 in assay [1] and in assay [2] was less than 5.46 nM throughout.

Turning to `[2H]C([2H])([2H])C(OC(=O)N[C@@H]1C(=O)N2C[C@H](Oc3nccc4cc(OC(C)C)ccc34)C[C@H]2C(=O)N[C@]2(C(=O)NS(=O)(=O)C3(C)CC3)C[C@H]2/C=C\CC[C@H](C)C[C@H]1C)(C([2H])([2H])[2H])C([2H])([2H])[2H]` [Compound 5166, 1,1,1,3,3,3-hexadeutero-2-(trideuteromethyl)propan-2-yl((2R,6S,7R,9S,13aS,14aR,16aS,Z)-2-((6-isopropoxyisoquinolin-1-yl)oxy)-7,9-dimethyl-14a-(((1-methylcyclopropyl)sulfonyl)carbamoyl)-5,16-dioxo-1,2,3,5,6,7,8,9,10,11,13a,14,14a,15,16,16a-hexadecahydrocyclopropa[e]pyrrolo[1,2-a][1,4]diazacyclopentadecin-6-yl)carbamate], the EC50 in assay [1] and in assay [2] was 4.82 to 103 nM in each case.

With `[2H]C([2H])([2H])C(OC(=O)N[C@@H]1C(=O)N2C[C@H](Oc3nccc4cc(OC(C)C)ccc34)C[C@H]2C(=O)N[C@]2(C(=O)NS(=O)(=O)C3(C)CC3)C[C@H]2/C=C\CC[C@@H](C)C[C@H]1C)(C([2H])([2H])[2H])C([2H])([2H])[2H]` [Compound 5167, 1,1,1,3,3,3-hexadeutero-2-(trideuteromethyl)propan-2-yl((2R,6S,7R,9R,13aS,14aR,16aS,Z)-2-((6-isopropoxyisoquinolin-1-yl)oxy)-7,9-dimethyl-14a-(((1-methylcyclopropyl)sulfonyl)carbamoyl)-5,16-dioxo-1,2,3,5,6,7,8,9,10,11,13a,14,14a,15,16,16a-hexadecahydrocyclopropa[e]pyrrolo[1,2-a][1,4]diazacyclopentadecin-6-yl)carbamate], the EC50 in assay [1] and in assay [2] was less than 5.46 nM each time.

For the compound `CCCOc1ccc2c(O[C@@H]3C[C@H]4C(=O)N[C@]5(C(=O)NS(=O)(=O)C6CC6)C[C@H]5/C=C\CC[C@H](C)C[C@@H](C)[C@H](NC(=O)OC(C)(C)C)C(=O)N4C3)nccc2c1` [Compound 5168, tert-butyl ((2R,6S,7R,9S,13aS,14aR,16aS,Z)-14a-((cyclopropylsulfonyl)carbamoyl)-7,9-dimethyl-5,16-dioxo-2-((6-propoxyisoquinolin-1-yl)oxy)-1,2,3,5,6,7,8,9,10,11,13a,14,14a,15,16,16a-hexadecahydrocyclopropa[e]pyrrolo[1,2-a][1,4]diazacyclopentadecin-6-yl)carbamate], the EC50 in assay [1] and in assay [2] was less than 5.46 nM throughout.

Take `CCCOc1ccc2c(O[C@@H]3C[C@H]4C(=O)N[C@]5(C(=O)NS(=O)(=O)C6CC6)C[C@H]5/C=C\CC[C@@H](C)C[C@@H](C)[C@H](NC(=O)OC(C)(C)C)C(=O)N4C3)nccc2c1` [Compound 5169, tert-butyl ((2R,6S,7R,9R,13aS,14aR,16aS,Z)-14a-((cyclopropylsulfonyl)carbamoyl)-7,9-dimethyl-5,16-dioxo-2-((6-propoxyisoquinolin-1-yl)oxy)-1,2,3,5,6,7,8,9,10,11,13a,14,14a,15,16,16a-hexadecahydrocyclopropa[e]pyrrolo[1,2-a][1,4]diazacyclopentadecin-6-yl)carbamate]: the EC50 in assay [1] and in assay [2] was less than 5.46 nM throughout.

As for `CCCOc1ccc2c(O[C@@H]3C[C@H]4C(=O)N[C@]5(C(=O)NS(=O)(=O)C6CC6)C[C@H]5/C=C\CC[C@H](C)C[C@@H](C)[C@H](NC(=O)OC(C)(C)C(F)(F)F)C(=O)N4C3)nccc2c1` [Compound 5170, 1,1,1-trifluoro-2-methylpropan-2-yl((2R,6S,7R,9S,13aS,14aR,16aS,Z)-14a-((cyclopropylsulfonyl)carbamoyl)-7,9-dimethyl-5,16-dioxo-2-((6-propoxyisoquinolin-1-yl)oxy)-1,2,3,5,6,7,8,9,10,11,13a,14,14a,15,16,16a-hexadecahydrocyclopropa[e]pyrrolo[1,2-a][1,4]diazacyclopentadecin-6-yl)carbamate], the EC50 is less than 5.46 nM in assay [1] and 4.82 to 103 nM in assay [2].

Consider `CCCOc1ccc2c(O[C@@H]3C[C@H]4C(=O)N[C@]5(C(=O)NS(=O)(=O)C6CC6)C[C@H]5/C=C\CC[C@@H](C)C[C@@H](C)[C@H](NC(=O)OC(C)(C)C(F)(F)F)C(=O)N4C3)nccc2c1` [Compound 5171, 1,1,1-trifluoro-2-methylpropan-2-yl((2R,6S,7R,9R,13aS,14aR,16aS,Z)-14a-((cyclopropylsulfonyl)carbamoyl)-7,9-dimethyl-5,16-dioxo-2-((6-propoxyisoquinolin-1-yl)oxy)-1,2,3,5,6,7,8,9,10,11,13a,14,14a,15,16,16a-hexadecahydrocyclopropa[e]pyrrolo[1,2-a][1,4]diazacyclopentadecin-6-yl)carbamate], for which the EC50 in assay [1] and in assay [2] was less than 5.46 nM in each case.

Take `[2H]C([2H])([2H])C(OC(=O)N[C@@H]1C(=O)N2C[C@H](Oc3nccc4cc(OCCC)ccc34)C[C@H]2C(=O)N[C@]2(C(=O)NS(=O)(=O)C3CC3)C[C@H]2/C=C\CC[C@H](C)C[C@H]1C)(C([2H])([2H])[2H])C(F)(F)F` [Compound 5172]: the EC50 was less than 5.46 nM in assay [1] and 4.82 to 103 nM in assay [2].
